Test: ORAC 5.0 antioxidant capacity
Settings: Trolox reference standard
From the text: Table 5 lists representative novel 1,6-dienes analogs of Formula I-III which are useful as anti-oxidant. ORAC 5.0 consists of five types of ORAC assays that evaluate the antioxidant capacity of material against five primary reactive oxygen species (ROSs, commonly called “oxygen radicals”) found in humans: peroxyl radical, hydroxyl radical, superoxide anion, singlet oxygen, and […]. Trolox is used as reference standard, and the results are expressed as μ mole Trolex equivalency per gram (or milliliter) of a tested material.

SMILES	ORAC [μ mole TE/gram]
CC(C)=CCCC(C)/C=C/c1ccc(O)cc1 (centres unmarked) [Compound 5, (E)-4-(3,7-dimethylocta-1,6-dienyl)phenol]	37643
CC(C)=CCC/C(C)=C/c1cc(O)cc(O)c1 [Compound 4, (E/Z)-5-(2,6-dimethylhepta-1,5-dienyl)benzene-1,3-diol]	22580
CC(C)=CCCC(C)/C=C/c1ccc(O)cc1O (centres unmarked) [Compound 6, (E)-4-(3,7-dimethylocta-1,6-dienyl) benzene-1,3-diol]	45869
CC(C)=CCCC(C)/C=C/c1cc(O)cc(O)c1 (centres unmarked) [Compound 7, (E)-5-(3,7-dimethylocta-1,6-dienyl) benzene-1,3-diol]	18196
CC(C)=CCCC(C)C/C=C\c1cc(O)cc(O)c1 (centres unmarked) [Compound 15, (Z)-5-(4,8-dimethylnona-1,7-dienyl) benzene-1,3-diol]	11951

From patent publication US12358859B2, “Series of compounds for treatment of skin diseases and other conditions” (Unigen, Inc., priority 2018, dated 2025)
